Assay results published in ChEMBL document CHEMBL4190324 (Eur J Med Chem, 2017).

Experiments:
[1] = biological target: Acetylcholinesterase (Electrophorus electricus, UniProt O42275); experiment: Inhibition of electric eel AChE using acetylthiocholine as substrate preincubated for 20 mins followed by substrate addition measured every 2 mins for 20 mins by Ellman's method
[2] = Cytotoxicity against HEK293 cells assessed as cell viability up to 100 uM after 24 hrs by MTT assay relative to control; type: cell-based; details: human, read-out: Activity
[3] = biological target: Cholinesterase (Equus caballus, UniProt P81908)
Description: Inhibition of equine serum BChE using butyrylthiocholine as substrate preincubated for 20 mins followed by substrate addition measured every 2 mins for 20 mins by Ellman's method

[4] = tested on: HEK293; experiment: Cytotoxicity against HEK293 cells at > 50 uM after 24 hrs by MTT assay; type: cell-based; details: human, hek293, 24 h
[5] = Hepatotoxicity against human HepG2 cells assessed as reduction in cell viability at 50 uM after 24 hrs by MTT assay; type: toxicity, cell-based; details: hepg2, 24 h
[6] = Hepatotoxicity against human HepG2 cells assessed as reduction in cell viability at 10 to 300 uM after 72 hrs by MTT assay; type: toxicity, cell-based; details: hepg2, 72 h
[7] = tested on: HEK293; experiment: Cytotoxicity against HEK293 cells at 0.1 to 300 uM after 24 hrs by MTT assay; type: cell-based; details: human, hek293, 24 h
[8] = Hepatotoxicity against human HepG2 cells assessed as reduction in cell viability at 300 uM after 24 hrs by MTT assay; type: toxicity, cell-based; details: hepg2, 24 h

Cholinesterase, sequence (P81908 whole entry): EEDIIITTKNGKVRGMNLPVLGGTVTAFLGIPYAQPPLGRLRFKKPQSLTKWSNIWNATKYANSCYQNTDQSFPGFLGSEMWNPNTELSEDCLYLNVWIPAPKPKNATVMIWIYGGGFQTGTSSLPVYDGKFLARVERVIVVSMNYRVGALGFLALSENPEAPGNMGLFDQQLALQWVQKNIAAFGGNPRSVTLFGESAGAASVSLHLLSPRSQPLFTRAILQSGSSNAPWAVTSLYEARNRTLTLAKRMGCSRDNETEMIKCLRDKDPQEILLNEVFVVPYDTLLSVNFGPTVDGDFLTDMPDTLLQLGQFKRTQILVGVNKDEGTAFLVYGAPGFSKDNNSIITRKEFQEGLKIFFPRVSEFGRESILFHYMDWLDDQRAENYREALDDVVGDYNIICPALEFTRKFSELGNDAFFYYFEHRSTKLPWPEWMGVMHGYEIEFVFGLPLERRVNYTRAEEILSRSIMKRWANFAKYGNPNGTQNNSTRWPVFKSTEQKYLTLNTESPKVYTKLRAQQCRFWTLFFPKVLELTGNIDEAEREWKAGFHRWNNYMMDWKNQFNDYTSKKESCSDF
Acetylcholinesterase, sequence (O42275 whole entry): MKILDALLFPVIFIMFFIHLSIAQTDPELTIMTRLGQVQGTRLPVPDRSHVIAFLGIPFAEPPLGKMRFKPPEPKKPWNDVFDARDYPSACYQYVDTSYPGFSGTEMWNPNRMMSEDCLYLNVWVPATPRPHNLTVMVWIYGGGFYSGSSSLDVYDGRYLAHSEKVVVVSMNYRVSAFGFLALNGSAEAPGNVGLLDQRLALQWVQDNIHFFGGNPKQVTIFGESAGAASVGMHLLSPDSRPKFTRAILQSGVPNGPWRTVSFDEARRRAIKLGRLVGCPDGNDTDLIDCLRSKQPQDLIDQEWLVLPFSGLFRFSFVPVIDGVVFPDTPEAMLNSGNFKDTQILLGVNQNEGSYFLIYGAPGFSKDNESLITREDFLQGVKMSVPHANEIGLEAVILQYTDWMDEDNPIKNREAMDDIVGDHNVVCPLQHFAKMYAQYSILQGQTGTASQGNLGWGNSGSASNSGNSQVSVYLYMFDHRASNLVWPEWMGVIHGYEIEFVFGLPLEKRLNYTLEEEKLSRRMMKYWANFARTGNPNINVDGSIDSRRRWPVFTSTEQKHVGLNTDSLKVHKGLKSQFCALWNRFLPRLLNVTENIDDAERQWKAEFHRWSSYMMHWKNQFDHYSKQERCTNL

SMILES	IC50 [1]	viability at 24 h [2]	IC50 [3]	Activity [4]	Activity [5]	Activity [6]	Activity [7]	Activity [8]
Cn1nccc1NC(=O)C1CCc2nc3cc(Br)ccc3c(N)c2C1 (configuration not stated)	17.7 nM	> 80%	20900 nM	–	–	–	–	–
Cn1cc(-c2ccc3c(N)c4c(nc3c2)CCC(C(=O)NCCc2ccccc2)C4)cn1 (configuration not stated)	189 nM	–	10600 nM	Toxic	–	–	–	–
CNC(=O)C1CCc2nc3cc(Br)ccc3c(N)c2C1 (configuration not stated)	28.6 nM	> 80%	–	–	Toxic	–	–	–
NNC(=O)C1CCc2nc3ccccc3c(N)c2C1 (configuration not stated)	13 nM	–	–	–	–	Non-Toxic	Non-Toxic	Non-Toxic
Nc1c2c(nc3cc(Br)ccc13)CCC(C(=O)NCCCc1ccccc1)C2 (configuration not stated)	7.14 nM	–	5110 nM	Toxic	Toxic	–	–	–
Nc1c2c(nc3cc(Br)ccc13)CCC(C(=O)NCCc1ccccc1)C2 (configuration not stated)	24.1 nM	–	7170 nM	Toxic	Toxic	–	–	–
Cn1cc(-c2ccc3c(N)c4c(nc3c2)CCC(C(=O)NCc2ccccc2)C4)cn1 (configuration not stated)	191 nM	–	2260 nM	–	–	–	–	–
Nc1c2c(nc3ccccc13)CCC(C(=O)NCCCc1ccccc1)C2 (configuration not stated)	5.17 nM	–	3680 nM	Toxic	Toxic	–	–	–
Nc1c2c(nc3cc(Br)ccc13)CCC(C(=O)NCc1ccccc1)C2 (configuration not stated)	33.7 nM	> 80%	10200 nM	Toxic	–	–	–	–
Nc1c2c(nc3cc(-c4cncnc4)ccc13)CCC(C(=O)NCCCc1ccccc1)C2 (configuration not stated)	40.8 nM	–	18000 nM	Toxic	–	–	–	–
Nc1c2c(nc3ccccc13)CCC(C(=O)NCc1ccccc1)C2 (configuration not stated)	37.2 nM	–	10800 nM	–	–	–	–	–
Cn1cc(-c2ccc3c(N)c4c(nc3c2)CCC(C(=O)NCCCc2ccccc2)C4)cn1 (configuration not stated)	57.6 nM	–	2770 nM	–	–	–	–	–
Nc1c2c(nc3ccccc13)CCC(C(=O)NCCc1ccccc1)C2 (configuration not stated)	16.8 nM	–	4050 nM	Toxic	Toxic	–	–	–
